Series [1] is described as follows: Coating thickness by ellipsometry (Cauchy model). It counts as physicochemical. Particulars: Cauchy film model. On the procedure: The thickness of the peptide-based coating was measured using α-SE spectroscopic ellipsometer (J. A. Woollam, Lincoln, Nebr., USA). […] The thickness of the layers and refractive indices were fitted according to the Cauchy model. The coefficients of the Cauchy equation were initially fixed for organic layers (An=1.45, Bn=0.01 and Cn=0), and an angle offset was permitted. Then, the parameters were allowed to be fitted to determine more accurate values.

The nature of series [2]: AFM topography of mica coated with the peptides. Particulars: coated mica substrate, 0.5 mg/mL in methanol overnight. It counts as physicochemical. As to the method:
Freshly cleaved mica surfaces were dipped overnight in different peptide solution at a concentration of 0.5 mg/mL in methanol. Then, the surfaces were washed with fresh methanol and dried under N2.

Series [3] is described as follows: QCM-D real-time adhesion of peptides to Ti sensor (Sauerbrey model). Particulars: QCM-D on Ti sensor, 0.5 mg/mL in MeOH, 40 minutes. As to the method: QCM-D (Q-sense, Biolin Scientific) was used for the study of peptide adhesion onto Ti surface. Measurements were performed in a flow module E1 system. Ti sensors with a fundamental resonant frequency of 5 MHz were also purchased from Q-sense and used as supplied. Prior to each experiment Ti sensors were cleaned with Oxygen/Plasma (Atto, Diener Electronic), followed by rinsing with 2% SDS and TDW and finally dried under N2. All QCM-D experiments were performed under flow-through conditions using a digital peristaltic pump ([…] Peristaltic Pump, IDEX) operating in pushing mode. The studied solutions were injected to the sensor crystal chamber at a rate of 0.1 mL/min. Organic solvent compatible tube and O-ring were used for the flow system. Peptides were dissolved in MeOH to a concentration of 0.5 mg/mL. The data were fitted with Sauerbrey model. According to this model the mass of adhering layer is calculated as […]

Series [4] in a line: Layer thickness on Ti evaluated by XPS. Particulars: Ti substrates, prolonged incubation. Type of series: physicochemical. On the procedure:
The X-ray Photoelectron Spectroscopy (XPS) measurements were performed using a Kratos AXIS Ultra X-ray photoelectron spectrometer (Kratos Analytical Ltd., Manchester, UK). Spectra were acquired using the A1-Kα monochromatic X-ray source (1,486.7 eV). Sample take-off angle was 90° (i.e. normal to the analyzer). The vacuum pressure in the analyzing chamber maintained to 2·10^-9 Torr. […] Data analyses were done using the Kratos Vision data reducing processing software (Kratos Analytical Ltd.) and […] Software Ltd.). Using the XPS measurements, it is possible to calculate the thickness of the assembled layers. We have done so using the standard attenuation relations of the photoelectrons emerging from different sample depths. The thickness calculation is based on the Briggs et al. method and others. For the Au substrate, the overlay thickness d (nm) expressed as: […] Calculated, using S. Tougard […] software (http://www.quases.com). Inelastic electron mean free path calculated from the Tanuma, Powell and Penn algorithm [Penn, 1994].

A short description of series [5]: Dynamic water contact angles, tilting-plate method. Type of series: physicochemical. Particulars: gold substrate after coating. On the procedure: (§1) The wetting properties were further investigated by the tilting-plate method that measured the dynamic contact angles, because it was essential in the confirmation of self-cleaning properties to investigate the dynamic water contact angles and surface free energies. The advancing (yadv) and receding (yrec) water contact angles of f-DOPA-coated substrates were measured, and the contact angle hysteresis (i.e., (yadv-yrec)) of each substrate was calculated. […] A water droplet on the substrate easily rolled off at a tilt angle of 5.31, which is clear evidence of self-cleaning properties. […] In addition, the surface free energy (gS) was calculated based on the Owens-Wendt geometric mean equation that divides the surface free energy into the dispersive (gDS) and polar (gPS) ones.

Series [6] in a line: XPS, SEM and AFM of f-DOPA films. It counts as physicochemical. As to the method: After 12 h, the substrate was washed with acetonitrile, and the coating process was repeated with a fresh f-DOPA solution.
Series [7] can be described thus: Surface free energy, Owens-Wendt geometric mean equation. The conditions noted are these: f-DOPA-coated gold surface; water and diiodomethane. Type of series: physicochemical. On the procedure: as §1
The surface free energy (gS; gS=gDS+gPS) of each surface was determined by measuring the contact angles with water and diiodomethane (CH2I2). The surface free energy of the f-DOPA-coated gold surface was calculated to be 0.279 mJ m^−2, and the other substrates have the surface free energies between 0.2 and 0.9 mJ m^−2. These values are extremely low, probably because of both the structural roughness and the incorporated perfluoro groups. For comparison, the surface free energy of a smooth surface modified with CF3 groups in hexagonal close packing was reported to be 6.7 mJ m^−2. […]

Series [8] can be described thus: Contact angle measurements of peptide-coated surfaces. Type of series: physicochemical. The conditions noted are these: titanium substrate coated with peptide; bare 43.2°; 0.5 mg/mL in methanol. On the procedure: The clean surfaces were dipped in a peptide solution (0.5 mg/mL in methanol) and left for overnight at RT. Then, they were rinsed extensively with methanol and dried under nitrogen. Contact angle measurements were carried out using a Theta Lite optical tensiometer (Attension, Finland). Each experimental measurement consisted of three repeats, and the reported angles were averaged. […] We chose this concentration of peptide since it formed a substantial coating that gave a good signal in various characterization methods. After incubation, we thoroughly washed the substrate with methanol and dried it under nitrogen. Due to the hydrophobic moieties of the peptides, water could not be used as a solvent system despite its high polarity. We used methanol as the solvent since it dissolved the peptide completely, and at the same time allowed it to adhere the substrate. Since methanol is a toxic solvent, we also examined other solvents with different polarities.

This note sets out measurements from patent US20180079912A1, “ANTIFOULING MATERIALS” (priority 2013, published 2018).

Square brackets hold non-standard residues; d marks the D form. Peptide text beside a SMILES is read from it. Phe(4-F) = N[C@@H](Cc1ccc(F)cc1)C(=O)O; Dopa = N[C@@H](Cc1ccc(O)c(O)c1)C(=O)O Some results are limits rather than exact numbers.

In the case of `COC(=O)[C@H](Cc1ccc(F)cc1)NC(=O)[C@@H](N)Cc1ccc(O)c(O)c1` [Peptide 6, NH2-L-DOPA-L-(4F) Phe-COOMe] (H-[Dopa]-[Phe(4-F)]-OMe), the “thickness of the coating by ellipsometry” value in series [1] worked out at 3.66±0.04 nm. Also, the “height of spherical-like aggregates (AFM)” value (“height” below) in series [2] is 1.02-3.65 nm. In series [3], the Density is reported as 805 Kg/m^3, the Mass/Area is on record as 13 ± 2 ng/cm^2 and the Thickness is 1.7 ± Å. Besides, the “average thickness of the peptide layer evaluated by XPS” value (“average thickness” below) in series [4] was found to be 3.82±0.04 nm.

Turning to `NC(Cc1ccc(O)c(O)c1)C(=O)OCCC(F)(F)C(F)(F)C(F)(F)C(F)(F)C(F)(F)C(F)(F)C(F)(F)C(F)(F)F` (centres unmarked) [f-DOPA], in series [5], the contact angle hysteresis was determined as 9.91 and the “tilt angle at which a water droplet rolled off” value is recorded as 5.31. Further, the film thickness in series [6] (f-DOPA coating on gold, from disappearance of Au XPS peaks) is not below 10 nm. In addition, the “root-mean-square roughness (AFM)” value in series [6] (f-DOPA film) turned out to be 533.92 nm. Further, in series [7], the surface free energy came to 0.279 mJ m^−2.

As to “NH2-DOPA-L-(F5)Phe(2)-L-(F5)Phe(3)-COOMe [Peptide 5]”, the “thickness of the coating by ellipsometry” value in series [1] stood at 5.2±0.1 nm. Also, the “height” value in series [2] is on record as 1.00-5.00 nm. Moreover, in series [3], the Density came to 717 Kg/m^3, the Mass/Area amounted to 27 ± 3 ng/cm^2 and the Thickness is listed as 3.4 ± Å. Further, in series [4], the “average thickness” value stood at 4.2±0.1 nm.

Turning to “NH2-L-DOPA-D-(4F)Phe(2)-D-(4F)Phe(3)-COOMe [Peptide 4]”, the “height” value in series [2] is 0.32-0.65 nm. In series [3], the Density is on record as 769 Kg/m^3, the Mass/Area amounted to 45 ± 2 ng/cm^2 and the Thickness was determined as 5.6 ± 0.3 Å. In addition, the “average thickness” value in series [4] came to 4.41±0.03 nm.

For “NH2-L-DOPA-D-(4F)Phe(2)-L-(4F)Phe(3)-COOMe [Peptide 3]”, in series [2], the “height” value was 0.20-2.30 nm. In addition, in series [3], the Density is 760 Kg/m^3, the Mass/Area turned out to be 43 ± 4 ng/cm^2 and the Thickness amounted to 5.4 ± 0.5 Å. Further, the “average thickness” value in series [4] was determined as 3.9±0.1 nm.

“NH2-L-DOPA-L(4F)-Phe(2)-L(4F)-Phe(3)-COOMe [Peptide 1]”: the “height” value in series [2] is reported as 0.25-0.50 nm. In series [3], the Density was found to be 767 ± 4 Kg/m^3, the Mass/Area turned out to be 72.1 ± 0.4 ng/cm^2 and the Thickness was 9.11 ± 0.05 Å. The molecule also came in with a contact angle in series [8] of 68.1 °. Further, the “average thickness” value in series [4] is 3.9±0.1 nm.

As for “NH2-L-DOPA-L-(4F)Phe(2)-D-(4F)Phe(3)-COOMe [Peptide 2]”, the “height” value in series [2] is reported as 0.20-0.48 nm. For the same molecule, in series [3], the Density worked out at 824 Kg/m^3, the Mass/Area worked out at 57 ± 3 ng/cm^2 and the Thickness was 7.3 ± 0.3 Å. The “average thickness” value in series [4] came to 4.3±0.1 nm.
